US20250188032A1, “NITROGEN-CONTAINING HETEROCYCLIC COMPOUNDS AND USES THEREOF” (BNH RESEARCH CO., LTD., priority 2022, published 2025)

What was measured:
293T cells = assay: Cytotoxicity test (CCK-8 cell viability) in 293T cells; assay type: cell-based, human
Protocol: Human undifferentiated neuroblastoma cell line SH-SY5Y and human embryonic kidney cell line (HEK)-293T were purchased from Korean Cell Line Bank (Korea) and Takara (Japan), respectively. Cells were grown in HyClone Minimal Essential Medium (MEM) and Dulbecco's Modified Eagle Medium (DMEM), respectively, supplemented with 10% (v/v) fetal bovine serum (FBS), penicillin (100 U/mL), and streptomycin ([…]). Cells were maintained in a humidified atmosphere of 95% air and 5% CO2 at 37° C. Cells were passaged 10 times at maximum. Cells were dissociated using 0.05% trypsin-EDTA solution and the cells were seeded in new culture dishes for maintenance.
To examine the cytotoxicity of compounds described herein in human cell lines, SH-SY5Y and 293T cells were used. Approximately 8,000 cells (for 293T) and 15,000 cells (for SH-SY5Y) were plated per well of a 96-well plate (SPL Life Sciences Co., Ltd., Pocheon, Korea). After incubating at 37° C. for 24 hours in a humidified atmosphere containing 5% CO2, the culture medium was replaced by a series of concentrations of test compounds diluted in the corresponding culture medium. The time of co-incubation was 24 hours and six replicates were made for each measurement. Finally, 10 μL of CCK-8 reagent (Dojindo Laboratories, Rockville, MD) was added to each well, and after incubation at 37° C. for 3 minutes, the OD at 450 nm was measured using a multifunction microplate reader (Tecan Infinite M200 Pro). These measurements were compared to that of a control and expressed as a percentage of the control to calculate cell viability. The IC50 value was calculated using SPSS software. To do this, the absorbance of the blank wells with only growth medium is subtracted from the values or the wells with cells. The readout value of background (vehicle) was set as a 100% viability, and then the percent viability for each test solution was calculated.
Cell viability (%)=[(As-Ab)/(Ac-Ab)]×100
The data was presented as the mean value and standard error of the mean (S.E.M.). Statistical analysis was performed with the one-way ANOVA with Tukey's post hoc test (GraphPad Prism 5 software package, version 5.02, GraphPad Software Inc. USA). Significance was accepted at p<0.05.

[1] = system: C57BL/6J mice barrel cortex (layer 4); assay: Synaptic function test: TC EPSC potency and GABA/AMPA ratio in barrel cortex (layer 4); assay type: in vivo
Text: Eight weeks old male C57BL/6J mice were anesthetized with isoflurane during surgery. The mice were then be placed in a stereotaxic frame (RWD Life Science, China). The parietal and the frontal bones were exposed by a sagittal incision of the scalp at the midline from the level of the eyes to the occipital protuberance. A small burr hole was drilled after exposing the skull. The injection cannula was placed at the following coordinates: (Mouse: Bregma −3.30, lateral −1.50, and ventral 0.7 mm). Sterile saline solution (+/−a compound of the present disclosure) was perfused at a constant flow rate of 0.5 μL/h through the injection cannula using a mini-Os pump (DURECT Corporation ALZET Osmotic Pumps, CA). Implantation was done in layer 4 of the barrel cortex ipsilateral. To estimate extent of the diffusion of the injected compound in layer 4 barrel cortex during pump injection, methylene blue was first injected to stain the diffusion area. On average methylene blue diffused to […] away from the injection site (the total area of the barrel cortex region is about 1500 μm). Based on this analysis, the present inventors recorded from barrel cortex area.
2 mg of BnH12001 was dissolved in 800 ul of DMSO and prepared as a stock solution. For oral administration, BnH12001 DMSO stock:PEG400:Saline was mixed in a ratio of 5:55:40 and 200 μl/animal was administered. For the control group, a vehicle in which DMSO:PEG400:Saline was mixed in a 5:55:40 ratio was administered at 200 ul/animal. In the single drug administration test, the compound was administered once a day for about 11 to 12 days at a dose of 1 mg/kg. Dose response test was performed by administering the compound once a day for about 11 to 12 days at doses of 0.03, 0.1, 0.3, 1, 3, and 10 mg/kg. 5 mice were used for the compound administration group and the control group, respectively.
For TC or hippocampus slice preparation. 9 to 10 weeks-old male C57BL/6J mice were anesthetized with isoflurane. Then, the brain was rapidly cooled via transcardial perfusion with ice-cold sucrose-artificial cerebrospinal fluid (aCSF). The brain was removed and placed in ice-cold sucrose aCSF. Paracoronal slices were prepared at an angle of 50° relative to the midline on a ramp at an angle of 10°. Then, slices were incubated in aCSF at 35° C. for 30 minutes to recover. Slices were then incubated in aCSF at room temperature (23 to 25° C.) for 1 to 4 hours before being placed in the recording chamber for experiments. The standard aCSF contains saturated with 95% O2/5% CO2. The brain of the mouse was removed and cut into 400 μm at a 50° angle (mouse at a 55° angle) to attach the cut portion to the vibratome disc to be the bottom. Brain slice was incubated in 35° C. in aCSF solution for 30 minutes, or at RT in aCSF solution for 1 hour.
All electrophysiological experiments were conducted at 27 to 29° C. For electrophysiological experiments, electrodes with […] resistance were used and stimuli were applied to the ventral posteromedial nucleus (VPM) using a concentric bipolar electrode (FHC, Bowdoin, ME). The somatosensory cortex was identified by the presence of barrels under 4× magnification and differential interference contrast (DIC) optics, and by the ability to evoke short and constant latency field excitatory postsynaptic potentials (fEPSPs) by VPM stimulation. Whole-cell voltage-clamp recordings were made from stellate cells (SC) in layer IV of the somatosensory barrel cortex using infrared illumination and differential interference contrast (DIC) optics. The composition of whole cell recording solution is shown as follows:
Whole cell recordings were made using a multiclamp 700A (Molecular devices, Sunnyvale, CA) digitized at 10 kHz and filtered at 2 kHz. […]

[2] = Os pump, injected into layer 4 of barrel cortex, 3 μM, 2 weeks, 8-week-old C57BL/6J mice
[3] = oral, 1 mg/kg, 8-week-old C57BL/6J mice

SMILES	Change in cell viability (293T cells; 0, 0.1, 1, 10, 100 μM, 293T)	Balance of excitation/inhibition (GABA/AMPA ratio) [1, 2]	Excitatory TC synaptic potency (TC potency) [1, 2]	Balance of excitation/inhibition (GABA/AMPA ratio) [1, 3]	TC synaptic potency in the sensory cortex [1, 3]	TC EPSC potency in the layer 4 barrel cortex ([1]; orally-applied, 3 μM)	Cell viability test results (CCK) 10 uM (293T cells; 10 uM, 24 hours co-incubation, 293T cell line, % of control)	Cell viability test results (CCK) 100 uM (293T cells; 100 uM, 24 hours co-incubation, 293T cell line, % of control)	Efficacy on TC synaptic potency compared among racemate and enantiomers [1, 3]
CC1CCC(C(=O)O)CN1C(=O)Cc1ccc(F)cc1Cl (racemic) [BnH12001, 1-(2-(2-chloro-4-fluorophenyl)acetyl)-6-methylpiperidine-3-carboxylic acid]	no significant change in cell viability	maintained	significantly increased	maintaining the balance of excitation/inhibition	increase the TC synaptic potency	significantly augmented	–	–	–
C[C@@H]1CC[C@H](C(=O)O)CN1C(=O)Cc1ccc(F)cc1Cl [BnH12001 enantiomer (3S,6R, 98%<), (3S,6R)-1-(2-(2-chloro-4-fluorophenyl)acetyl)-6-methylpiperidine-3-carboxylic acid]	–	–	–	maintaining the balance of excitation/inhibition	increase the TC synaptic potency	–	99%<	95%<	highest efficacy
